We go through 5 molecules from US10301288B2, “Kinase inhibitors” (Topivert Pharma Limited, priority 2013, dated 2019).

One experiment deals with p38 MAPKα (Homo sapiens (Human), UniProt Q16539). Kind of experiment: p38 MAPKα enzyme inhibition (FRET, Method 2). Type of experiment: biochemical. As for the experimental part:
(§1) The enzyme inhibitory activities of compounds disclosed herein are determined by FRET using synthetic peptides labelled with both donor and acceptor fluorophores (Z-LYTE, Invitrogen Ltd., Paisley, UK).
The inhibitory activities of test compounds against the p38 MAPKα isoform (MAPK14: Invitrogen), are evaluated indirectly by determining the level of activation/phosphorylation of the down-stream molecule, MAPKAP-K2. The p38 MAPKα protein (80 ng/mL, 2.5 μL) is mixed with the test compound (2.5 μL of either 4 μg/mL, 0.4 μg/mL, 0.04 μg/mL or 0.004 μg/mL) for 2 hr at RT. […] The mixture is incubated for 1 hr at RT. Development reagent (protease, 5 μL) is added for 1 hr prior to detection in a fluorescence microplate reader (Varioskan® Flash, ThermoFisher Scientific).
(§2) In all cases, the site-specific protease cleaves non-phosphorylated peptide only and eliminates the FRET signal. Phosphorylation levels of each reaction are calculated using the ratio of coumarin emission (donor) over fluorescein emission (acceptor), for which high ratios indicate high phosphorylation and low ratios indicate low phosphorylation levels.

The next experiment addresses GSK3α (Homo sapiens (Human), UniProt P49840). Kind of experiment: GSK 3α enzyme inhibition (FRET, Method 2). It counts as biochemical. As for the experimental part: as §1
The inhibitory activities of compounds of the invention against the GSK 3α enzyme isoform (Invitrogen), are evaluated by determining the level of activation/phosphorylation of the target peptide. The GSK3-α protein (500 ng/mL, 2.5 μL) is mixed with the test compound (2.5 μL at either 4 μg/mL, 0.4 μg/mL, 0.04 μg/mL, or 0.004 μg/mL) for 2 hr at RT. The FRET peptide (8 μM, 2.5 μL), which is a phosphorylation target for GSK3α, and ATP (40 μM, 2.5 μL) are then added to the enzyme/compound mixture and the resulting mixture incubated for 1 hr. Development reagent (protease, 5 μL) is added for 1 hr prior to detection in a fluorescence microplate reader (Varioskan® Flash, ThermoFisher Scientific).
as §2

Another experiment addresses Syk (Homo sapiens (Human), UniProt P43405). The experiment in a line: Syk enzyme inhibition (FRET). Type of experiment: biochemical. As for the experimental part:
as §1
(§3) The inhibitory activities of compounds of the invention against c-Src and Syk enzymes (Invitrogen), are evaluated in a similar fashion to that described hereinabove. The relevant enzyme (3000 ng/mL or 2000 ng/mL respectively, 2.5 μL) is incubated with the test compound (either 4 μg/mL, 0.4 μg/mL, 0.04 μg/mL, or 0.004 μg/mL, 2.5 μL each) for 2 hr at RT. The FRET peptides (8 μM. 2.5 μL), and appropriate ATP solutions (2.5 μL, 800 μM for c-Src, and 60 μM ATP for Syk) are then added to the enzymes/compound mixtures and incubated for 1 hr. Development reagent (protease, 5 μL) is added for 1 hr prior to detection in a fluorescence microplate reader (Varioskan® Flash, ThermoFisher Scientific).
as §2

For experiment [1], the system named is PBMCs. Kind of experiment: (i) Cell mitosis assay in PBMCs. It counts as cell-based. Particulars: Homo sapiens, PBMC, 5 μg/mL. As for the experimental part:
PBMCs from healthy subjects are separated from whole blood (Quintiles, London, UK) using a density gradient (Histopaque®-1077, Sigma-Aldrich, Poole, UK). The PBMCs (3 million cells per sample) are subsequently treated with 2% PHA (Sigma-Aldrich, Poole, UK) for 48 hr, followed by a 20 hr exposure to varying concentrations of test compounds. At 2 hr before collection, PBMCs are treated with demecolcine (0.1 μg/mL; Invitrogen, Paisley, UK) to arrest cells in metaphase. […] Fluorescence is observed using an ATTUNE flow cytometer (Invitrogen, Paisley, UK), gating for lymphocytes.

The target in another experiment is c-Src (Homo sapiens (Human), UniProt P12931). The experiment in a line: c-Src enzyme inhibition (FRET). It counts as biochemical. As for the experimental part: as §1, §3, §2
The next experiment deals with β-catenin. Kind of experiment: (m) Accumulation of β catenin in d-U937 cells. It counts as cell-based, human. Particulars: Reference Compound at 1 μg/mL defined as 100%. As for the experimental part: U937 cells, a human monocytic cell line, are differentiated into macrophage-type cells by incubation with PMA; (100 ng/mL) for between 48 to 72 hr. The cells are then incubated with either final concentrations of test compound or vehicle for 18 hr. The induction of β-catenin by the test compounds is stopped by replacing the media with 4% formaldehyde solution. Endogenous peroxide activity is neutralised by incubating with quenching buffer (100 μL, 0.1% sodium azide, 1% H2O2 in PBS with 0.05% Tween-20) for 20 min. The cells are washed with washing buffer (200 μL; PBS containing 0.05% Tween-20) and incubated with blocking solution (200 μL; 5% milk in PBS) for 1 hr, re-washed with washing buffer (200 μL) and then incubated overnight with anti-β-catenin antibody solution (50 μL) in 1% BSA/PBS (BD, Oxford, UK).
After washing with washing buffer (3×200 μL; PBS containing 0.05% Tween-20), cells are incubated with an HRP-conjugated secondary antibody solution (100 μL) in 1% BSA/PBS (Dako, Cambridge, UK) and the resultant signal is determined colourimetrically (OD: 450 nm with a reference wavelength of 655 nm) using TMB substrate (50 μL; R&D Systems, Abingdon, UK). This reaction is stopped by addition of 1N H2SO4 solution (50 μL). Cells are then washed with washing buffer and 2% crystal violet solution (50 μL) is applied for 30 min. After washing with washing buffer (3×200 μL), 1% SDS (100 μL) is added to each well and the plates are shaken lightly for 1 hr prior to measuring the absorbance at 595 nm (Varioskan® Flash, Thermo-Fisher Scientific).
The measured OD450-655 readings are corrected for cell number by dividing the OD450-655 by the OD595 readings.

Experiment [2] relates to PBMCs. Kind of experiment: (b) LPS-induced TNFα/IL-8 release in PBMC cells. It counts as cell-based. Particulars: Homo sapiens, read-out: IC50 for Inhibition of Cytokine Release, IL-8. As for the experimental part: Peripheral blood mononuclear cells (PBMCs) from healthy subjects are separated from whole blood using a density gradient (Lymphoprep, Axis-Shield Healthcare). The PBMCs are seeded in 96 well plates and treated with compounds at the desired concentration for 2 hours before addition of 1 ng/ml LPS (Escherichia Coli 0111:B4 from Sigma Aldrich) for 24 hours under normal tissue culture conditions (37° C., 5% CO2). The supernatant is harvested for determination of IL-8 and TNFα concentrations by sandwich ELISA (Duo-set, R&D systems) and read on the fluorescence microplate reader (Varioskan® Flash, ThermoFisher Scientific).

The subject of experiment [3] is PBMCs. Kind of experiment: (c) IL-2 and IFN gamma release in CD3/CD28 stimulated PBMC cells. Type of experiment: cell-based. Particulars: Homo sapiens. As for the experimental part: PBMCs from healthy subjects are separated from whole blood using a density gradient (Lymphoprep, Axis-Shield Healthcare). Cells are added to a 96 well plate pre-coated with a mixture of CD3/CD28 monoclonal antibodies (0.3 ug/ml eBioscience and 3 ug/ml BD Pharmingen respectively). Compound at the desired concentration is then added to the wells and the plate left for 3 days under normal tissue culture conditions. […] The IC50 is determined from the dose response curve.

The next experiment has as its system HT29 cells. The experiment in a line: (d) IL-1β-induced IL-8 release in HT29 cells. Type of experiment: cell-based. Particulars: Homo sapiens, HT-29, read-out: IC50 for Inhibition of Cytokine Release, IL-8. As for the experimental part:
HT29 cells, a human colon adenocarcinoma cell line, are plated in a 96 well plate (24 hrs) and pre-treated with compounds at the desired concentration for 2 hours before addition of 5 ng/ml of IL-1β (Abeam) for 24 hours. Supernatants are harvested for IL-8 quantification by Sandwich ELISA (Duo-set, R&D System). The IC50 is determined from the dose response curve.

The mark [4] stands for this setting: read-out: IC50 for Inhibition of Cytokine Release, IFNγ.
The mark [5] stands for this setting: read-out: IC50 for Inhibition of Cytokine Release, IL-2.

Chain of c-Src (P12931 whole entry, looked up): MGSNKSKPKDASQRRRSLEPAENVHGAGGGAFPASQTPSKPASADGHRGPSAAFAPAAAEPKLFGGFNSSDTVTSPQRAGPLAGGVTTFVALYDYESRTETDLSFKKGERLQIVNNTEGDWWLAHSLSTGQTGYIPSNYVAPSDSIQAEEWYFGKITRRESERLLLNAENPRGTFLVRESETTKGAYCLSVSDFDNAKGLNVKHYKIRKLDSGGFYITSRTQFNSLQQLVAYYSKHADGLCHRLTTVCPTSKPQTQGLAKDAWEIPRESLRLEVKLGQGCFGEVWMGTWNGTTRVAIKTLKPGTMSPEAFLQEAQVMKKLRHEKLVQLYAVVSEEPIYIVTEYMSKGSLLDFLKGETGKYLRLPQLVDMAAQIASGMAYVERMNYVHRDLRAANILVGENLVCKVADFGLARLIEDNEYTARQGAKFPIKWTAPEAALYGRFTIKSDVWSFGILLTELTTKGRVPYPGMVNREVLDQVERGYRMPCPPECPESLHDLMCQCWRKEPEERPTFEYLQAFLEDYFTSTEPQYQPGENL
Chain of GSK3α (P49840 whole entry, canonical isoform): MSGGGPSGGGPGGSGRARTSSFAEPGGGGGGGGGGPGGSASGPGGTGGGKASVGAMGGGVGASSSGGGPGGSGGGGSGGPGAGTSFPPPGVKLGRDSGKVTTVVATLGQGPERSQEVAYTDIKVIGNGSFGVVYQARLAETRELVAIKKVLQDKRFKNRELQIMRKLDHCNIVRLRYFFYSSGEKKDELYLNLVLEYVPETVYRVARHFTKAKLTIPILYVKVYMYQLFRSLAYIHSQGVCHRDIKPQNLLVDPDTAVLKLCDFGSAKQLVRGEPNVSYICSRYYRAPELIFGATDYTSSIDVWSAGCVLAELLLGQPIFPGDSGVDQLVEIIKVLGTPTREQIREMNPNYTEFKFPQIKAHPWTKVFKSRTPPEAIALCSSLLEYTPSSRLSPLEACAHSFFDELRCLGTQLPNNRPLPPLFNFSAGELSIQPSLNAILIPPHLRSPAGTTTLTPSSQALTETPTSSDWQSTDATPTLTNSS
Chain of p38 MAPKα (Q16539 whole entry): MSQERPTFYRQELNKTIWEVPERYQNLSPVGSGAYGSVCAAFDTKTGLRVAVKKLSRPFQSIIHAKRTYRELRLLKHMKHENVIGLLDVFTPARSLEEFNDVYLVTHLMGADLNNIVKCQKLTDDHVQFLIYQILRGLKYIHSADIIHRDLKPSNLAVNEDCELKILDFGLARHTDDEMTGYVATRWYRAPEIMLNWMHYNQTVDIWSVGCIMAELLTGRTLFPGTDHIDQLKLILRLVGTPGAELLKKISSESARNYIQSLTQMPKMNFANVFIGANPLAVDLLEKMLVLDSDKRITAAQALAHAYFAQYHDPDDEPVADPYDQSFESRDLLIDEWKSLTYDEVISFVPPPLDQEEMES

What is called IC50 is the point on the concentration scale where inhibition reaches its midpoint. As a reminder, the inhibition is how much of the control response was suppressed. On to `C#Cc1cc(Nc2nccc(Oc3ccc(NC(=O)Nc4cc(C(C)C)nn4-c4ccc(C)cc4)c4ccccc34)n2)cc(C(=O)NCCOCCOCCOC)c1` [Example 1, 3-Ethynyl-5-((4-((4-(3-(3-isopropyl-1-(p-tolyl)-1H-pyrazol-5-yl)ureido)-naphthalen-1-yl)oxy)pyrimidin-2-yl)amino)-N-(2-(2-(2-methoxyethoxy)ethoxy)ethyl)-benzamide], for which the IC50 is 25 nM against p38 MAPKα; 12800 nM against GSK3α; 370 nM on Syk; 30 nM on c-Src; 1.6 nM with PBMCs [2]. The inhibition at 5 µg/mL in the experiment with PBMCs [1] worked out at 3.6%. Moreover, the “% β-catenin induction” value was −14% with β-catenin (1 μg/mL), −13% in the experiment on β-catenin (5 μg/mL) and −17% with β-catenin (10 μg/mL).
On to `C#Cc1cc(Nc2nccc(Oc3ccc(NC(=O)Nc4cc(C(C)(C)C)nn4-c4ccc(OC)cc4)c4ccccc34)n2)cc(C(=O)NCCOCCOC)c1` [Example 5, 3-((4-((4-(3-(3-(tert-Butyl)-1-(4-methoxyphenyl)-1H-pyrazol-5-yl)ureido)-naphthalen-1-yl)oxy)pyrimidin-2-yl)amino)-5-ethynyl-N-(2-(2-methoxyethoxy)ethyl)-benzamide], for which the IC50 against p38 MAPKα was determined as 33 nM; on GSK3α, 13000 nM; at Syk, 34 nM; in the experiment with PBMCs [3] (setting [4]), 1.7 nM; with PBMCs [3] (setting [5]), 52.1 nM; against c-Src, 13 nM. Also, the IC50 with PBMCs [2] was determined as 1.2 nM. For the same molecule, the inhibition at 5 µg/mL in the experiment with PBMCs [1] was determined as 10.4%. Further, the “% β-catenin induction” value with β-catenin (1 μg/mL) was 8%; in the experiment with β-catenin (5 μg/mL), 2%; with β-catenin (10 μg/mL) it was 3%.
In the case of `C#Cc1cc(Nc2nccc(Oc3ccc(NC(=O)Nc4cc(C(C)(C)C)nn4-c4ccc(OC)cc4)c4ccccc34)n2)cc(C(=O)NCCOCCOCCOC)c1` [Example 3, 3-((4-((4-(3-(3-(tert-Butyl)-1-(4-methoxyphenyl)-1H-pyrazol-5-yl)ureido)-naphthalen-1-yl)oxy)pyrimidin-2-yl)amino)-5-ethynyl-N-(2-(2-(2-methoxyethoxy)-ethoxy)ethyl)benzamide], the 50% inhibitory concentration (IC50) at p38 MAPKα was found to be 39 nM; against GSK3α it was 12200 nM; on Syk it was 30 nM; in the experiment with PBMCs [3] (setting [4]) it was 2 nM; in the experiment on PBMCs [3] (setting [5]), 7.5 nM; at c-Src, 14 nM. The IC50 with PBMCs [2] turned out to be 1.2 nM. In the experiment on PBMCs [1], the inhibition at 5 µg/mL was 2.1%. In addition, the “% β-catenin induction” value was 1% in the experiment with β-catenin (1 μg/mL), 6% in the experiment with β-catenin (5 μg/mL) and 6% in the experiment on β-catenin (10 μg/mL).
As to `COCCOCCOCCNC(=O)c1cc(Nc2cc(Oc3ccc(NC(=O)Nc4cc(C(C)(C)C)nn4-c4ccc(N(C)C)cc4)c4ccccc34)ccn2)cc(OC)c1` [Example 10, 3-((4-((4-(3-(3-(tert-Butyl)-1-(4-(dimethylamino)phenyl)-1H-pyrazol-5-yl)ureido)-naphthalen-1-yl)oxy)pyridin-2-yl)amino)-5-methoxy-N-(2-(2-(2-methoxyethoxy)-ethoxy)ethyl)benzamide], the IC50 came out at 110 nM on p38 MAPKα; 4.8 nM in the experiment on HT29 cells; 12000 nM at GSK3α; 48 nM against Syk; 2.7 nM in the experiment on PBMCs [3] (setting [4]); 25 nM at c-Src. The IC50 in the experiment with PBMCs [2] was determined as 3.3 nM. Moreover, the entries for the “% β-catenin induction” value with β-catenin (1 μg/mL), with β-catenin (5 μg/mL) and with β-catenin (10 μg/mL) were 4%, 2% and 2%, respectively.
Regarding `C#Cc1cc(Nc2nccc(Oc3ccc(NC(=O)Nc4cc(C(C)(C)C)nn4-c4ccc(N(C)C)cc4)c4ccccc34)n2)cc(C(=O)NCCOCCOCCOC)c1` [Example 9, 3-((4-((4-(3-(3-(tert-Butyl)-1-(4-(dimethylamino)phenyl)-1H-pyrazol-5-yl)ureido)-naphthalen-1-yl)oxy)pyrimidin-2-yl)amino)-5-ethynyl-N-(2-(2-(2-methoxyethoxy)-ethoxy)ethyl)benzamide], the 50% inhibitory concentration (IC50) against p38 MAPKα turned out to be 98 nM; in the experiment with HT29 cells, 3.5 nM; against GSK3α, 12100 nM; against Syk, 35 nM; with PBMCs [3] (setting [4]), 8.4 nM; at c-Src, 15 nM. The IC50 in the experiment on PBMCs [2] was determined as 2.9 nM. For the same molecule, the results for the “% β-catenin induction” value in the experiment with β-catenin (1 μg/mL), in the experiment on β-catenin (5 μg/mL) and in the experiment on β-catenin (10 μg/mL) were 1%, 2% and 4%, respectively.
